Measurements published in publication PMC10693084, “Novel 8-Methoxycoumarin-3-Carboxamides with potent anticancer activity against liver cancer via targeting caspase-3/7 and β-tubulin polymerization” (BMC Chemistry, 2023).

Assays:
[1] = tested on: human liver carcinoma HepG2 cells; test: MTT cytotoxicity assay against HepG2 cells; assay type: cell-based; settings: for Structure–activity summary of cytotoxic activity (Fig. 4B) / IC50: HepG2 cells; for IC50: MTT, 24 h treatment
Protocol: To assess the antitumor properties of these compounds, we utilized the 3-(4,5-dimethylthiazol-2-yl)-2,5-diphenyl tetrazolium bromide (MTT) colorimetric assay, a widely used method to evaluate cell viability and cytotoxicity.
Following the incubation period, the cells were subjected to various concentrations of the prepared molecules and subsequently incubated for a duration of 24 h. […] Subsequently, a volume of 100 μL of dimethyl sulfoxide (DMSO) was introduced into each well in order to facilitate the dissolution of the purple formazan that had been generated. The quantification of the color intensity of the formazan product, which serves as an indicator of the cellular growth condition, is performed by employing an ELISA plate reader set at a wavelength of 570 nm. The experimental conditions were implemented with a minimum of three replicates, and the experiments were conducted on at least three separate occasions.

Compound	Structure–activity summary of cytotoxic activity (Fig. 4B) [1]	IC50 [1] [µM]	IC50 ([1]; Homo sapiens, HepG2, 24 h) [µM]	HepG2-Cell Viability (%) ([1]; concentration LogC 0.19 (µM))	HepG2-Cell Viability (%) ([1]; concentration LogC 0.8 (µM))	HepG2-Cell Viability (%) ([1]; concentration LogC 1.4 (µM))	HepG2-Cell Viability (%) ([1]; concentration LogC 2 (µM))	HepG2-Cell Viability (%) ([1]; concentration LogC -0.41 (µM))	melting point [°C]
COc1ccc(Br)c2cc(C(=O)O)c(=O)oc12 [Compound 9, 5-Bromo-8-methoxycoumarin-3-carboxylic acid]	attenuated activity	41.6 ± 2.52	41	66.86±1.86	55.34±2.24	50.19±3.07	42.17±2.94	73.23±1.47	210
COc1cccc2cc(C(=O)O)c(=O)oc12 [Compound 8, 8-methoxycoumarin-3-carboxylic acid]	moderate activity	5.18 ± 0.31	5	–	–	–	–	–	186
COc1ccc(Br)c2cc(C(=O)NC(C)=O)c(=O)oc12 [Compound 7, N-acetyl 5-bromo-8-methoxycoumarin-3-carboxamide]	improved activity	2.57 ± 0.16	2.3	68.52±2.36	60.52±2.64	53.19±2.87	45.03±3.1	77.18±1.73	220
COc1cccc2cc(C(=O)NC(C)=O)c(=O)oc12 [Compound 6, N-acetyl 8-methoxycoumarin-3-carboxamide]	moderate activity	–	–	54.47±1.72	44.64±1.98	37.53±2.14	27.04±2.87	59.86±1.33	285
COc1cccc2cc(C(N)=O)c(=O)oc12 [Compound 4, 8-Methoxycoumarin-3-carboxamide]	moderate activity	17.2 ± 1.05	17	65.8±1.73	57.78±2.46	47.29±3.09	37.94±2.75	75.81±1.48	253
